Biological target: CDK2/Cyclin E1 full length (Homo sapiens (Human), UniProt P24941)
Assay: CDK2/Cyclin E1 full length mobility shift assay
Format: biochemical

| Structure (SMILES) | Ki |
| --- | --- |
| CC(C)NC(=O)O[C@@H]1CC[C@H](c2cc(NC(=O)Cc3cnc(C(F)(F)F)cn3)n[nH]2)C1 [Example 287, (1R,3S)-3-[3-({[5-(trifluoromethyl)pyrazin-2-yl]acetyl}amino)-1H-pyrazol-5-yl]cyclopentyl propan-2-ylcarbamate] | 2.26 nM |
| CCCNC(=O)O[C@@H]1CC[C@H](c2cc(NC(=O)Cc3cc(C)ncc3S(C)(=O)=O)n[nH]2)C1 [Example 208, (1R,3S)-3-[3-({[2-methyl-5-(methylsulfonyl)pyridin-4-yl]acetyl}amino)-1H-pyrazol-5-yl]cyclopentyl propylcarbamate] | 3.18 nM |
| Cc1ccc(F)c(CC(=O)Nc2cc([C@H]3CC[C@@H](OC(=O)NC4(C)CC4)C3)[nH]n2)n1 [Example 435, (1R,3S)-3-(3-{[(3-fluoro-6-methylpyridin-2-yl)acetyl]amino}-1H-pyrazol-5-yl)cyclopentyl (1-methylcyclopropyl)carbamate] | 1.49 nM |
| CCNC(=O)O[C@@H]1CC[C@H](c2cc(NC(=O)Cc3cccc4scnc34)n[nH]2)C1 [Example 234, (1R,3S)-3-{3-[(1,3-benzothiazol-4-ylacetyl)amino]-1H-pyrazol-5-yl}cyclopentyl ethylcarbamate] | 4.11 nM |
| CC(CC(F)(F)F)NC(=O)O[C@@H]1CC[C@H](c2cc(NC(=O)Cc3cnn(C(C)C)c3)n[nH]2)C1 (single isomer, unassigned) [Example 407] | 1.16 nM |
| Cc1cnc(CC(=O)Nc2cc([C@H]3CC[C@@H](OC(=O)NC(C)CC(F)F)C3)[nH]n2)o1 (single isomer, unassigned) [Example 96] | 2.05 nM |
| Cc1ncc(CC(=O)Nc2cc([C@H]3CC[C@@H](OC(=O)NC(C)C(C)(F)F)C3)[nH]n2)s1 (single isomer, unassigned) [Example 390] | 3.74 nM |
| CC(CC(F)F)NC(=O)O[C@@H]1CC[C@H](c2cc(NC(=O)Cc3cnn(C)c3)n[nH]2)C1 (single isomer, unassigned) [Example 387] | 0.3 nM |
| COC[C@H](C)NC(=O)O[C@@H]1CC[C@H](c2cc(NC(=O)Cc3ncc(OC)s3)n[nH]2)C1 [Example 522, (1R,3S)-3-(3-{[(5-methoxy-1,3-thiazol-2-yl)acetyl]amino}-1H-pyrazol-5-yl)cyclopentyl [(2S)-1-methoxypropan-2-yl]carbamate] | 3.05 nM |
| CC[C@H](C)NC(=O)O[C@@H]1CC[C@H](c2cc(NC(=O)Cc3cn(C)nc3OC)n[nH]2)C1 [Example 351, (1R,3S)-3-(3-{[(3-methoxy-1-methyl-1H-pyrazol-4-yl)acetyl]amino}-1H-pyrazol-5-yl)cyclopentyl (2S)-butan-2-ylcarbamate] | 2.77 nM |
| Cn1ccc(CC(=O)Nc2cc([C@H]3CC[C@@H](OC(=O)NC4(C)CCOCC4)C3)[nH]n2)n1 [Example 507, (1R,3S)-3-(3-{[(1-methyl-1H-pyrazol-3-yl)acetyl]amino}-1H-pyrazol-5-yl)cyclopentyl (4-methyltetrahydro-2H-pyran-4-yl)carbamate] | 3.69 nM |
| COc1cc(CC(=O)Nc2cc([C@@H]3CC[C@H](OC(=O)NCC4CCOCC4)C3)[nH]n2)ccn1 [Example 512, (1S,3R)-3-(3-{[(2-methoxypyridin-4-yl)acetyl]amino}-1H-pyrazol-5-yl)cyclopentyl (tetrahydro-2H-pyran-4-ylmethyl)carbamate] | 3.2 nM |
| CCC1CCN1C(=O)O[C@@H]1CC[C@H](c2cc(NC(=O)Cc3ncc(C)o3)n[nH]2)C1 (single isomer, unassigned) [Example 600] | 2.12 nM |
| Cc1coc(CC(=O)Nc2cc([C@H]3CC[C@@H](OC(=O)N[C@H](C)CC(F)(F)F)C3)[nH]n2)n1 [Example 395, (1R,3S)-3-(3-{[(4-methyl-1,3-oxazol-2-yl)acetyl]amino}-1H-pyrazol-5-yl)cyclopentyl [(2R)-4,4,4-trifluorobutan-2-yl]carbamate] | 1.43 nM |
| Cc1cnc(CC(=O)Nc2cc([C@H]3CC[C@@H](OC(=O)NC4(CC(F)(F)F)CC4)C3)[nH]n2)o1 [Example 454, (1R,3S)-3-(3-{[(5-methyl-1,3-oxazol-2-yl)acetyl]amino}-1H-pyrazol-5-yl)cyclopentyl[1-(2,2,2-trifluoroethyl)cyclopropyl]carbamate] | 0.48 nM |
| COc1ccc(CC(=O)Nc2cc([C@H]3CC[C@@H](OC(=O)N4C[C@@H](C#N)[C@@H]4C)C3)[nH]n2)cn1 (single isomer, unassigned) [Example 157] | 1.86 nM |
| Cc1nc(CC(=O)Nc2cc([C@H]3CC[C@@H](OC(=O)NC4(C)CC4)C3)[nH]n2)cs1 [Example 431, (1R,3S)-3-(3-{[(2-methyl-1,3-thiazol-4-yl)acetyl]amino}-1H-pyrazol-5-yl)cyclopentyl (1-methylcyclopropyl)carbamate] | 1.19 nM |
| CN1CC(CNC(=O)O[C@H]2CC[C@@H](c3cc(NC(=O)Cc4cc(F)cc(F)c4)n[nH]3)C2)OCC1=O (single isomer, unassigned) [Example 584] | 3.84 nM |

Now from value to molecule:

| Ki | Structure (SMILES) |
| --- | --- |
| 4.28 nM | O=C(Cc1cc(F)cc(F)c1)Nc1cc([C@@H]2CC[C@H](OC(=O)NC[C@H]3CCCO3)C2)[nH]n1 [Example 498, (1S,3R)-3-(3-{[(3,5-difluorophenyl)acetyl]amino}-1H-pyrazol-5-yl)cyclopentyl [(2R)-tetrahydrofuran-2-ylmethyl]carbamate] |
| 0.83 nM | Cc1coc(CC(=O)Nc2cc([C@H]3CC[C@@H](OC(=O)N4CCC[C@@H]4C)C3)[nH]n2)n1 [Example 636, (1R,3S)-3-(3-{[(4-methyl-1,3-oxazol-2-yl)acetyl]amino}-1H-pyrazol-5-yl)cyclopentyl (2S)-2-methylpyrrolidine-1-carboxylate] |
| 1.11 nM | Cc1cnc(CC(=O)Nc2cc([C@H]3CC[C@@H](OC(=O)N4[C@@H](C)C[C@@H]4C)C3)[nH]n2)cn1 [Example 608, (1R,3S)-3-(3-{[(5-methylpyrazin-2-y)acetyl]amino}-1H-pyrazol-5-yl)cyclopentyl (2S,4S)-2,4-dimethylazetidine-1-carboxylate] |
| 1.96 nM | CCC(O)CNC(=O)O[C@@H]1CC[C@H](c2cc(NC(=O)Cc3cc(F)cc(F)c3)n[nH]2)C1 (single isomer, unassigned) [Example 543] |
| 0.41 nM | CCCNC(=O)O[C@H]1CC[C@@H](c2cc(NC(=O)Cc3cc(OC)ncc3O)n[nH]2)C1 [Example 193, (1S,3R)-3-(3-{[(5-hydroxy-2-methoxypyridin-4-yl)acetyl]amino}-1H-pyrazol-5-yl)cyclopentyl propylcarbamate] |
| 2.77 nM | C[C@@H]1CCN1C(=O)O[C@@H]1CC[C@H](c2cc(NC(=O)Cc3cnn(C)c3)n[nH]2)C1 [Example 587, (1R,3S)-3-(3-{[(1-methyl-1H-pyrazol-4-yl)acetyl]amino}-1H-pyrazol-5-yl)cyclopentyl (2R)-2-methylazetidine-1-carboxylate] |
| 2.98 nM | COc1cc(CC(=O)Nc2cc([C@H]3CC[C@@H](OC(=O)N4C[C@H](O)[C@H]4C)C3)[nH]n2)ccn1 [Example 613, (1R,3S)-3-(3-{[(2-methoxypyridin-4-yl)acetyl]amino}-1H-pyrazol-5-yl)cyclopentyl (2R,3S)-3-hydroxy-2-methylazetidine-1-carboxylate] |
| 0.58 nM | CC[C@H](C)NC(=O)O[C@@H]1CC[C@H](c2cc(NC(=O)Cc3nnc(C)s3)n[nH]2)C1 [Example 344, (1R,3S)-3-(3-{[(5-methyl-1,3,4-thiadiazol-2-yl)acetyl]amino}-1H-pyrazol-5-yl)cyclopentyl (2S)-butan-2-ylcarbamate] |
| 2.28 nM | CCCNC(=O)O[C@H]1CC[C@@H](c2cc(NC(=O)Cc3c[nH]cn3)n[nH]2)C1 [Example 165, (1S,3R)-3-{3-[(1H-imidazol-4-ylacetyl)amino]-1H-pyrazol-5-yl}cyclopentyl propylcarbamate] |
| 0.23 nM | CC(C)(C)NC(=O)O[C@@H]1CC[C@H](c2cc(NC(=O)Cc3cc(Cl)ccn3)n[nH]2)C1 [Example 115] |
| 3.11 nM | C[C@H](F)[C@H](C)NC(=O)O[C@@H]1CC[C@H](c2cc(NC(=O)Cc3cnn(C)c3)n[nH]2)C1 (single isomer, unassigned) [Example 381, (1R,3S)-3-(3-{[(1-methyl-1H-pyrazol-4-yl)acetyl]amino}-1H-pyrazol-5-yl)cyclopentyl [(2S*,3S*)-3-fluorobutan-2-yl]carbamate] |
| 1.99 nM | COc1ccc(CC(=O)Nc2cc([C@H]3CC[C@@H](OC(=O)N4C[C@@H](O)[C@@H]4C)C3)[nH]n2)cn1 [Example 615, (1R,3S)-3-(3-{[(6-methoxypyridin-3-yl)acetyl]amino}-1H-pyrazol-5-yl)cyclopentyl (2S,3R)-3-hydroxy-2-methylazetidine-1-carboxylate] |
| 1.84 nM | Cc1cc(CC(=O)Nc2cc([C@H]3CC[C@@H](OC(=O)N4CCOC[C@H]4C)C3)[nH]n2)on1 [Example 643, (1R,3S)-3-(3-{[(3-methyl-1,2-oxazol-5-yl)acetyl]amino}-1H-pyrazol-5-yl)cyclopentyl (3R)-3-methylmorpholine-4-carboxylate] |
| 1.32 nM | COCCn1nccc1C(=O)Nc1cc([C@H]2CC[C@@H](OC(=O)NC(C)CC(F)(F)F)C2)[nH]n1 (single isomer, unassigned) [Example 87] |
| 0.33 nM | Cc1cnc(CC(=O)Nc2cc([C@H]3CC[C@@H](OC(=O)NC(C)(C)C)C3)[nH]n2)s1 [Example 303, (1R,3S)-3-(3-{[(5-methyl-1,3-thiazol-2-yl)acetyl]amino}-1H-pyrazol-5-yl)cyclopentyl tert-butylcarbamate] |
| 3.19 nM | O=C(Cc1cc(F)cc(F)c1)Nc1cc([C@@H]2CC[C@H](OC(=O)NCC3CCOCC3)C2)[nH]n1 [Example 513, (1S,3R)-3-(3-{[(3,5-difluorophenyl)acetyl]amino}-1H-pyrazol-5-yl)cyclopentyl (tetrahydro-2H-pyran-4-ylmethyl)carbamate] |
| 0.19 nM | CC[C@H](C)NC(=O)O[C@@H]1CC[C@H](c2cc(NC(=O)Cc3ccccc3S(N)(=O)=O)n[nH]2)C1 [Example 49] |
| 4.26 nM | Cc1ccc(C(=O)Nc2cc([C@H]3CC[C@@H](OC(=O)NC(C)CC(F)(F)F)C3)[nH]n2)cn1 (single isomer, unassigned) [Example 69] |
| 0.19 nM | CC1(NC(=O)O[C@@H]2CC[C@H](c3cc(NC(=O)Cc4ccc5ncccc5n4)n[nH]3)C2)CC1 [Example 132] |

From patent US11014911B2, “CDK2 inhibitors” (Pfizer Inc., priority 2019, dated 2021)
